{
  "source": "paper PMC9851200",
  "about": "“Multiparameter phenotypic screening for endogenous TFEB and TFE3 translocation identifies novel chemical series modulating lysosome function” (Autophagy, 2022)",
  "test_in_all_cases": "biochemical",
  "assay_type_in_all_cases": "binding",
  "key": {"[1]": {"target": "cellular kinases of SH-SY5Y cells (Homo sapiens, UniProt O00329)", "settings": "2µM; SH-SY5Y cells; Labeling Site ATP; VNWLAHNVSKDNRQ; read-out: KiNativ in-cell binding, % Inhibition, PIK3CD", "text": "(§1) As KINOMEscan is an in vitro assay, and as different cell types have variable kinase expression profiles we sought to determine the kinase binding profile in our SH-SY5Y TFEB-relocalization cell model. […] Bound kinases were pulled down and analyzed by mass spectrometry to determine the in situ kinase binding profile for each compound."}, "[2]": {"target": "cellular kinases of SH-SY5Y cells (Homo sapiens, UniProt O14757)", "sequence (O14757 whole entry)": "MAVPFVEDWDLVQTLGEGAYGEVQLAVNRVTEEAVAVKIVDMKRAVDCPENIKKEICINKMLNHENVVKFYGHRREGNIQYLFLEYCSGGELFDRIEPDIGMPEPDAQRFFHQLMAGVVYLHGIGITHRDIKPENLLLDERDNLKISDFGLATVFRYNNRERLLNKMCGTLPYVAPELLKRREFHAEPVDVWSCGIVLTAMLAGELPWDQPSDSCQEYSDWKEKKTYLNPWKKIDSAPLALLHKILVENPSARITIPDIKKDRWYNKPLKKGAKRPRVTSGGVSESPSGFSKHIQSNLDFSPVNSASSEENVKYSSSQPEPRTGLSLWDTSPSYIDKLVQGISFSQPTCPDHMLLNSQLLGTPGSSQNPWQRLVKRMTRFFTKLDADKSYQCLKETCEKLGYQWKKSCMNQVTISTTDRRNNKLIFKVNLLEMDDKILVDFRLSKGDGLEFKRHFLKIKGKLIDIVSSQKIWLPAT", "settings": "2µM; SH-SY5Y cells; Labeling Site Lys2; DIKPENLLLDER; read-out: KiNativ in-cell binding, % Inhibition, CHEK1/CHK1", "text": "as §1"}, "[3]": {"target": "cellular kinases of SH-SY5Y cells (Homo sapiens, UniProt P06493)", "settings": "2µM; SH-SY5Y cells; Labeling Site Lys2; DLKPQNLLIDDK; read-out: KiNativ in-cell binding, % Inhibition, CDK1/CDC2", "text": "as §1"}, "[4]": {"target": "cellular kinases of SH-SY5Y cells (Homo sapiens, UniProt P41240)", "sequence (P41240 whole entry)": "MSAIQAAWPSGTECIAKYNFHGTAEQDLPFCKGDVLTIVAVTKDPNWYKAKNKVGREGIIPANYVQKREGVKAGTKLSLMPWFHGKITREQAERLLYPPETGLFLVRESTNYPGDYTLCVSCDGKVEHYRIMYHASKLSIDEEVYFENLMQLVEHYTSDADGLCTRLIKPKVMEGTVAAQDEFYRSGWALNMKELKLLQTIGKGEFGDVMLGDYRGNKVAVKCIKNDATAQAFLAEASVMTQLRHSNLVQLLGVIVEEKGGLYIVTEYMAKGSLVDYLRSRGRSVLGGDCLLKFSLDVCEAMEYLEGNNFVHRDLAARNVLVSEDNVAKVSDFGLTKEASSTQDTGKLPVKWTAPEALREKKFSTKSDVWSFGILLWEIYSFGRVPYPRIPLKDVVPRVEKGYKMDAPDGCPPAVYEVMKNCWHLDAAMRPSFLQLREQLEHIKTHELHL", "settings": "2µM, SH-SY5Y cells, read-out: KiNativ in-cell binding, % Inhibition, CSK", "text": "as §1"}, "[5]": {"target": "cellular kinases of SH-SY5Y cells (Homo sapiens, UniProt P49841)", "settings": "read-out: KiNativ in-cell binding, % Inhibition, GSK3B", "text": "as §1"}, "[6]": {"target": "cellular kinases of SH-SY5Y cells (Homo sapiens, UniProt P78368)", "settings": "2µM; SH-SY5Y cells; Labeling Site Lys2; DVKPENFLVGRPGTK; read-out: KiNativ in-cell binding, % Inhibition, CSNK1G2/CK1g2", "text": "as §1"}, "[7]": {"target": "cellular kinases of SH-SY5Y cells (Homo sapiens, UniProt Q13464)", "sequence (Q13464 whole entry)": "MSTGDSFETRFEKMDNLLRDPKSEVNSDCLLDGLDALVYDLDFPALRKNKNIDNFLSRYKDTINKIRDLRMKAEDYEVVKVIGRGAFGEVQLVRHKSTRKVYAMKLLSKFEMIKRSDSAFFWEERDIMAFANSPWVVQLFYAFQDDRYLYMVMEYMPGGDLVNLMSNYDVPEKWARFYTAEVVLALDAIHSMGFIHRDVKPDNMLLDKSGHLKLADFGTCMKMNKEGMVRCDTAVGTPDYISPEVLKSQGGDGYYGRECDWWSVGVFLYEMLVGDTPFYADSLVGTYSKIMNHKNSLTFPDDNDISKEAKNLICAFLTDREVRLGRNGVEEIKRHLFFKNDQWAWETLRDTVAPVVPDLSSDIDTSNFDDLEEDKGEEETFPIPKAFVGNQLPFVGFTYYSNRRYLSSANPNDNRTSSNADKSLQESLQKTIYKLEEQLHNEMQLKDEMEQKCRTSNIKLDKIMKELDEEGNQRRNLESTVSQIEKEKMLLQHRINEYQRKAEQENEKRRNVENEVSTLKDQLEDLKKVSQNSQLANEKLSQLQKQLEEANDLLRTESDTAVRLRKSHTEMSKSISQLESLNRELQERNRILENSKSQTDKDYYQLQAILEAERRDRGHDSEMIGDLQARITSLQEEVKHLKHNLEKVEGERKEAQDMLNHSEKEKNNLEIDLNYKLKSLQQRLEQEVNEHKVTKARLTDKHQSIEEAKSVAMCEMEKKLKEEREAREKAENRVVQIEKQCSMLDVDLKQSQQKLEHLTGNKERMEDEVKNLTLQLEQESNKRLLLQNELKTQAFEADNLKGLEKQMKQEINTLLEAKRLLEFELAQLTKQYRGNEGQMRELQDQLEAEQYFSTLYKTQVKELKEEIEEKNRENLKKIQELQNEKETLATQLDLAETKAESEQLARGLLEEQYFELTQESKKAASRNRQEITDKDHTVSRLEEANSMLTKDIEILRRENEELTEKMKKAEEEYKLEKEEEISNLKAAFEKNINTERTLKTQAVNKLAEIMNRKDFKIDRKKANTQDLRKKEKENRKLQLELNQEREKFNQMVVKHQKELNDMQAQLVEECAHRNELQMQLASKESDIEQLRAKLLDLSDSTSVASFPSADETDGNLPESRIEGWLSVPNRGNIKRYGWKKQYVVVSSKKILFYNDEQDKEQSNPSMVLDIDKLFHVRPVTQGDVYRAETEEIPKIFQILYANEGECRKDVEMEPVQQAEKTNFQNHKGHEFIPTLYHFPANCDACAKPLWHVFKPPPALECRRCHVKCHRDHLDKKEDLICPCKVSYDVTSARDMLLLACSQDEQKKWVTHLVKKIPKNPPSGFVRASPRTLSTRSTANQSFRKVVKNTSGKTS", "settings": "2µM; SH-SY5Y cells; Labeling Site Other; KLQLELNQER; read-out: KiNativ in-cell binding, % Inhibition, ROCK1", "text": "as §1"}, "[8]": {"target": "cellular kinases of SH-SY5Y cells (Homo sapiens, UniProt Q13535)", "sequence (Q13535 whole entry)": "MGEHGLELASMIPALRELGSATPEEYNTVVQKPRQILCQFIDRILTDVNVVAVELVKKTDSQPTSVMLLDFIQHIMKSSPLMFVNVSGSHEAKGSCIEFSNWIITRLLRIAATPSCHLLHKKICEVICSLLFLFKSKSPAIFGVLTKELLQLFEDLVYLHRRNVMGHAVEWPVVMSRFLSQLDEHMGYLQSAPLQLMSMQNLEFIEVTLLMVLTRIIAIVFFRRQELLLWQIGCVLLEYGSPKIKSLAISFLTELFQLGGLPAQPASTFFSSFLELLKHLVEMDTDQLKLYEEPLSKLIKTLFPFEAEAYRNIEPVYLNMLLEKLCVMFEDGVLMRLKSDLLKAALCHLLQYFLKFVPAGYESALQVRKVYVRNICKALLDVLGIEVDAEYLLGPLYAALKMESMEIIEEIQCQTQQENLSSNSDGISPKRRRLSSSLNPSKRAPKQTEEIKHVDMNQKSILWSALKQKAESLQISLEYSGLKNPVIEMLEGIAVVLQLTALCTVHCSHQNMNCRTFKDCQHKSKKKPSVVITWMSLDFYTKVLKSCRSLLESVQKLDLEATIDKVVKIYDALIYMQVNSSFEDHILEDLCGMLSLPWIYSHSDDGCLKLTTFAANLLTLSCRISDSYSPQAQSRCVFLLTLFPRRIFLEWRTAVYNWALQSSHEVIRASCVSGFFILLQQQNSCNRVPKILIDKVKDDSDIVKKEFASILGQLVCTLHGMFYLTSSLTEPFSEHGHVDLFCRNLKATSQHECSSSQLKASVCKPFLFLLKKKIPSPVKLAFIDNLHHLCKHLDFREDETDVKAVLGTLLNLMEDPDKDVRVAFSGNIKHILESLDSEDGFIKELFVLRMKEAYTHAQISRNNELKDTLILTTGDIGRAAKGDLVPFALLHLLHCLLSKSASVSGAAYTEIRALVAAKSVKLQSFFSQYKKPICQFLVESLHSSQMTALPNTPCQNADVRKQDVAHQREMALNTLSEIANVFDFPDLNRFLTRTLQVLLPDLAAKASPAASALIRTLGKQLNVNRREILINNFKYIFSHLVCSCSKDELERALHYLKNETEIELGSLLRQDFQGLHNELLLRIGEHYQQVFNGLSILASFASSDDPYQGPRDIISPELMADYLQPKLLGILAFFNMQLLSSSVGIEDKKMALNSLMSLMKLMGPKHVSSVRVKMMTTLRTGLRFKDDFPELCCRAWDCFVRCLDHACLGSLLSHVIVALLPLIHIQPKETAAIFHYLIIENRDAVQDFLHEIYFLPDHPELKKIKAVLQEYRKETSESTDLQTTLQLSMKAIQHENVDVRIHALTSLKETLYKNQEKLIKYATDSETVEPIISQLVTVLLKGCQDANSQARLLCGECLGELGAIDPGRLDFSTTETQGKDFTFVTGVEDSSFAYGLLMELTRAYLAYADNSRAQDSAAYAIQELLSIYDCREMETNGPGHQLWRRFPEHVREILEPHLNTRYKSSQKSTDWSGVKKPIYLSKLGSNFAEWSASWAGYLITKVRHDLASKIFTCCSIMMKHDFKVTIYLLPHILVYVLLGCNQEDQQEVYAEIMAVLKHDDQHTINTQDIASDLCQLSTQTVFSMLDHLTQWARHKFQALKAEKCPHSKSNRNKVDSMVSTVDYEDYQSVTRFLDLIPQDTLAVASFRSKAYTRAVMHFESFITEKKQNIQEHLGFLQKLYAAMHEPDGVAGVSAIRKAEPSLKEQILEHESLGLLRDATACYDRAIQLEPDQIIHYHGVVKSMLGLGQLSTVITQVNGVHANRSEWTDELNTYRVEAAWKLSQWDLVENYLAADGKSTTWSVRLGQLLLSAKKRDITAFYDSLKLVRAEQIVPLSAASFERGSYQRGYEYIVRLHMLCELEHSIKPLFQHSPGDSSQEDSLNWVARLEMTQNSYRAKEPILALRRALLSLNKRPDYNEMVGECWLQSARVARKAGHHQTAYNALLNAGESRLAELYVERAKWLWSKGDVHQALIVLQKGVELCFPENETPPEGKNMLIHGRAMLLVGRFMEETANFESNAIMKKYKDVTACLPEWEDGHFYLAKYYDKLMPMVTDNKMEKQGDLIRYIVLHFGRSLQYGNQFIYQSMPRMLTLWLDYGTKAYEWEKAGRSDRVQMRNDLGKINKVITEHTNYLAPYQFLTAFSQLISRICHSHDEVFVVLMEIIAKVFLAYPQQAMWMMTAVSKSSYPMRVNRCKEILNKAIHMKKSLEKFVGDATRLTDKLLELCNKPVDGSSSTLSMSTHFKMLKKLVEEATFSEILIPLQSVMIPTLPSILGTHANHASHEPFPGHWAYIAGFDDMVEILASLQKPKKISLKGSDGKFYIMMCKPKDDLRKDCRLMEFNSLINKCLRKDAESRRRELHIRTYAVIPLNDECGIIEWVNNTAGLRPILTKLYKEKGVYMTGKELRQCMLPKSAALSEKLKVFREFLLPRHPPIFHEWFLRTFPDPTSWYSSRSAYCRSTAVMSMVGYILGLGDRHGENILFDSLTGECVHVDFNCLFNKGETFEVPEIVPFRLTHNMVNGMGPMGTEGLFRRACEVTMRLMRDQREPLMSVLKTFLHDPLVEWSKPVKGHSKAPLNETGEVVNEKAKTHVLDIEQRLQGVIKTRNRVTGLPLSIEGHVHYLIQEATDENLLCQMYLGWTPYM", "settings": "2µM; SH-SY5Y cells; Labeling Site ATP; FYIMMCKPK; read-out: KiNativ in-cell binding, % Inhibition, ATR", "text": "as §1"}, "[9]": {"target": "T1, cellular kinases of SH-SY5Y cells (Homo sapiens, UniProt Q14680)", "T1 construct": "endogenous in cells; host or cells: SH-SY5Y", "settings": "2µM; SH-SY5Y cells; Labeling Site Lys2; DLKPENLLFDEYHK; read-out: KiNativ in-cell binding, % Inhibition, MELK", "text": "as §1"}, "[10]": {"target": "cellular kinases of SH-SY5Y cells (Homo sapiens, UniProt Q15349)", "settings": "2µM; SH-SY5Y cells; labeling site Lys2; peptide DLKPENILLDEEGHIKITDFGLSK", "text": "as §1"}, "[11]": {"target": "T2, cellular kinases of SH-SY5Y cells (Homo sapiens, UniProt Q8TD19)", "T2 construct": "endogenous in cells; host or cells: SH-SY5Y", "T2 sequence (Q8TD19 1-979)": "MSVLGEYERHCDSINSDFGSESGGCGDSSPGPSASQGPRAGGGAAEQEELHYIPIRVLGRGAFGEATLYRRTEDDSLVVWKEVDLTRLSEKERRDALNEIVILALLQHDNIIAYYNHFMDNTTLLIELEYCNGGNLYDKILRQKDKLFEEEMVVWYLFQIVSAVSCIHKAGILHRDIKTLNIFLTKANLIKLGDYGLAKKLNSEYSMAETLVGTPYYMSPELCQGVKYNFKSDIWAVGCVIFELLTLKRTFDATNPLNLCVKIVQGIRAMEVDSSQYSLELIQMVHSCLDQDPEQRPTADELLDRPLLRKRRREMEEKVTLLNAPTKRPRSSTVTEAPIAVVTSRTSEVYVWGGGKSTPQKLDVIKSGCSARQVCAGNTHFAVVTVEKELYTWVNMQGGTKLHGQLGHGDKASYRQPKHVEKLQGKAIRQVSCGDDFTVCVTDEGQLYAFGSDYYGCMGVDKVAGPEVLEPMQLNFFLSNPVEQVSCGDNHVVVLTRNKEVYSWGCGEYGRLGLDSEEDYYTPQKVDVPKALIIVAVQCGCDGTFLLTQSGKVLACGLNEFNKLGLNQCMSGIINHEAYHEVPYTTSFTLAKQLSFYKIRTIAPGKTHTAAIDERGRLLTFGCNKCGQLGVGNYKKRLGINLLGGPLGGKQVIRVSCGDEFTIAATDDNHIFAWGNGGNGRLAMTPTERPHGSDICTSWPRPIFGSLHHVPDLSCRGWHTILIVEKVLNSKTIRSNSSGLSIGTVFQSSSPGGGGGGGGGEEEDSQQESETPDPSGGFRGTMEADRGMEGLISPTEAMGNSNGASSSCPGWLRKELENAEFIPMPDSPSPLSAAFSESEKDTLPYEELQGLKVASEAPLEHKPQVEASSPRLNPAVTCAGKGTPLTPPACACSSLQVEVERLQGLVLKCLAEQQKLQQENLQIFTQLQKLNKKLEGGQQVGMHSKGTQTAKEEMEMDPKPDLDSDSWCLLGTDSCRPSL", "settings": "2µM, SH-SY5Y cells, read-out: KiNativ in-cell binding, % Inhibition, NEK9", "text": "as §1"}, "[12]": {"target": "cellular kinases of SH-SY5Y cells (Homo sapiens, UniProt Q9HCP0)", "settings": "2µM; SH-SY5Y cells; Labeling Site Lys2; DVKPENFLIGR; read-out: KiNativ in-cell binding, % Inhibition, CK1g1", "text": "as §1"}, "[13]": {"target": "T3, cellular kinases of SH-SY5Y cells (Homo sapiens, UniProt Q9UL54)", "T3 construct": "endogenous in cells; host or cells: SH-SY5Y", "settings": "2µM; SH-SY5Y cells; Labeling Site Lys2; DVKAGNILLSEPGLVK; read-out: KiNativ in-cell binding, % Inhibition, TAOK2/TAO2", "text": "as §1"}, "[14]": {"target": "T4, cellular kinases of SH-SY5Y cells (Homo sapiens, UniProt Q9Y572)", "T4 construct": "endogenous in cells; host or cells: SH-SY5Y", "settings": "2µM; SH-SY5Y cells; Labeling Site Lys2; DLKPSNVLLDPELHVK; read-out: KiNativ in-cell binding, % Inhibition, RIPK3", "text": "as §1"}},
  "note": "Read-outs that look alike come from different tables or passages of the source.",
  "data": [
    {"smiles": "Cc1cccc(-c2nc(Nc3ccc4ncsc4c3)c3ccccc3n2)n1", "note": "[NK140]", "values": [
      {"measurement": "inhibition at 2 µM", "setting": "[1]", "value": -29.2, "unit": "%"},
      {"measurement": "inhibition at 2 µM", "setting": "[2]", "value": 16, "unit": "%"},
      {"measurement": "inhibition at 2 µM", "setting": "[3]", "value": -2.3, "unit": "%"},
      {"measurement": "inhibition at 2 µM", "setting": "[4]; Labeling Site Activation Loop, VSDFGLTKEASSTQDTGKLPVK", "value": 21.6, "unit": "%"},
      {"measurement": "inhibition at 2 µM", "setting": "[4]; Labeling Site Lys1, VAVKCIK", "value": 4.7, "unit": "%"},
      {"measurement": "inhibition at 2 µM", "setting": "[5]", "value": 15.8, "unit": "%"},
      {"measurement": "inhibition at 2 µM", "setting": "[6]", "value": 1.8, "unit": "%"},
      {"measurement": "inhibition at 2 µM", "setting": "[7]", "value": 1.3, "unit": "%"},
      {"measurement": "inhibition at 2 µM", "setting": "[8]", "value": -42.5, "unit": "%"},
      {"measurement": "inhibition at 2 µM", "setting": "[9]", "value": -40.7, "unit": "%"},
      {"measurement": "KiNativ in-cell binding, RSK3 domain1", "setting": "[10]", "value": -68.0},
      {"measurement": "inhibition at 2 µM", "setting": "[11]; Labeling Site Activation Loop, LGDYGLAKK", "value": 0.758, "unit": "%"},
      {"measurement": "inhibition at 2 µM", "setting": "[11]; Labeling Site Lys1, RTEDDSLVVWKEVDLTR", "value": -12.8, "unit": "%"},
      {"measurement": "inhibition at 2 µM", "setting": "[11]; Labeling Site Lys2, DIKTLNIFLTK", "value": -8, "unit": "%"},
      {"measurement": "inhibition at 2 µM", "setting": "[12]", "value": -28.2, "unit": "%"},
      {"measurement": "inhibition at 2 µM", "setting": "[13]", "value": 23.9, "unit": "%"},
      {"measurement": "inhibition at 2 µM", "setting": "[14]", "value": 26.1, "unit": "%"}
    ]}
  ]
}
